The source of these data is publication PMC11984924, “Dipeptidic Phosphonates: Potent Inhibitors of Pseudomonas aeruginosa Elastase B Showing Efficacy in a Murine Keratitis Model” (Advanced Science, 2025).

One data set deals with T1, MMP-1 (Homo sapiens, UniProt P03956).
T1 construct: purchased AnaSpec (Fremont, CA, USA)
T1 sequence (P03956 100-469): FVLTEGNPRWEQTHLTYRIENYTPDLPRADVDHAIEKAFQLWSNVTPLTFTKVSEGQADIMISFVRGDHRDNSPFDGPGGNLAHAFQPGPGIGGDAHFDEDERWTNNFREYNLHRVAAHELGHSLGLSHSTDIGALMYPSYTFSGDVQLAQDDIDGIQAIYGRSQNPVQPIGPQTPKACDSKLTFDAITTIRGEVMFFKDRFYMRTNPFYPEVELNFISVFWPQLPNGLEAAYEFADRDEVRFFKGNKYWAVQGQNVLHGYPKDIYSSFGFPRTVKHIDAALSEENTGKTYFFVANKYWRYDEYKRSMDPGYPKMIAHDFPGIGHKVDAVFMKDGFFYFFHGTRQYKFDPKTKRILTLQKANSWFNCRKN
Put plainly: MMP-1 inhibition (off-target). Type of data set: biochemical. Particulars: read-out: MMP-1 % inhibition at 100 µM. The procedure:
3.1 In vitro inhibition assays
LasB was expressed and purified as described previously.[3] In vitro inhibition assays (LasB, MMPs, TACE). All in vitro inhibition assays were performed as described previously.[10] TACE inhibitor screening kits were purchased from Sigma-Aldrich (Saint Louis, MO). MMPs along with the SensoLyte 520 Generic MMP Activity Kit Fluorimetric were purchased from AnaSpec (Fremont, CA, USA). The assays were performed according to the guidelines of the respective manufacturer. Fluorescence signals were measured using a CLARIOstar plate reader (BMG Labtech, Ortenberg, Germany). […]
3.8 Test against zinc metalloproteases MMP1–3 and TACE (ADAM17), and testing of
We selected a panel of human off -targets, including three human matrix metalloproteases (MMP-1, -2 and -3) and TACE (ADAM-17). These assays were performed as described previously.[3] The TACE inhibitor screening kit was purchased from Sigma -Aldrich (Saint Louis, MO). MMPs along with the SensoLyte 520 Generic MMP Activity Kit Fluorimetric were purchased from AnaSpec (Fremont, CA, USA). The assays were performed according to the guidelines of the respective manufacturer. Fluorescence signals were measured using a CLARIOstar plate reader (BMG Labtech, Ortenberg, Germany). […]
Table S6: Percent (%) inhibition of three MMPs (1 –3) and TACE (ADAM17) in presence of selected LasB inhibitors at 100 µM. Results are means and SD of at least two independent experiments. […]
Compound [% inhibition at [% inhibition at [% inhibition at [% inhibition at 100

The test system of data set [1] is Pseudomonas aeruginosa strain PA14. Put plainly: Antibacterial effect on P. aeruginosa PA14 growth. It counts as cell-based. Particulars: PA14, read-out: P. aeruginosa PA14 % inhibition of growth at 100 µM, 18 h, 37 °C. The procedure:
Table S14: Food consumption after treatment with (R)-30.
Table S15: Body and organ weights (gram) after treatment with (R)-30.
3.12 Antibacterial effects
As start OD600 of Pseudomonas aeruginosa strain PA14 we used 0.03 in a total volume of 200
µL in lysogeny broth containing the compounds predissolved in DMSO (max. 1%). Final
compound concentrations prepared from serial dilutions ranged from 3.125 to 100 µM (double
values for each concentration). The ODs were determined after addition of the compounds and
again after incubation for 18 h at 37 °C and 200 rpm in 96 well plates (Sarstedt, Nümbrecht,
Germany) using a FLUOStar Omega (BMG labtech, Ortenberg, Germany). Given percent (%)
inhibition values are means of at least two independent determinations. To obtain the values
for a given compound, their ODs were compared to those of DMSO controls. Concerning the […]

Data set [2] is described as follows: Metabolic stability in mouse liver S9 fraction. It counts as in vitro ADME. The conditions noted are these: C57BL/6, liver S9 fraction; mouse liver S9, 1 µM. How it is done: page 57: 3. Biological evaluation 3.1 In vitro inhibition assays […] MMPs, TACE). […] inhibitor screening kits were purchased from Sigma-Aldrich (Saint Louis, MO). MMPs along with the SensoLyte 520 Generic MMP Activity Kit Fluorimetric were purchased from AnaSpec (Fremont, CA, USA). The assays were performed according to the guidelines of the respective manufacturer. Fluorescence signals were measured using a CLARIOstar plate reader (BMG Labtech, Ortenberg, Germany). 3.2 Kinetic solubility […] well were transferred into another 96-well plate and mixed with 148.5 µL of PBS. Plates were shaken for 5 min at 600 rpm at room temperature (r.t.), and the absorbance at 620 nm was measured. Absorbance values were normalized by blank subtraction and plotted using GraphPad Prism 8.4.2 (GraphPad Software, San Diego, CA, USA). Solubility (S) was […] 3.3 Lipophilicity determination LogD7.4 was analyzed using an HPLC−based method. The UV retention time of reference […] Linear […] Analysis was performed using a Vanquish Flex HPLC system with variable wavelength detector (Thermo Fisher, Dreieich, Germany) with the following conditions: EC150/2 NUCLEODUR C18 Pyramid column, 5 μM (Macherey Nagel, Düren, Germany); eluent A: 50 mM NH4OAc pH 7.4, eluent B: acetonitrile, and flow: 0.6 mL/min. […] 3.4 Metabolic stability in liver S9 fractions For the evaluation of combined phase I and phase II metabolic stability, the compound (1 μM) was incubated with 1 mg/mL pooled mouse liver S9 fraction (C57BL/6, Xenotech, Kansas Cit y, USA) or human liver S9 fraction (Corning, USA), 2 mM NADPH, 1 mM UDPGA, 10 mM MgCl2, 5 mM GSH and 0.1 mM PAPS at 37 °C for 120 min. The metabolic stability of testosterone, verapamil and ketoconazole were determined in parallel to confirm the enzymatic activity of S56 page 58: mouse S9 fractions, for human S9 testosterone, diclofenac and propranolol were used. The incubation was stopped after defined time points by precipitation of aliquots of S9 enzymes […] Samples were stored on ice until the end of the incubation and precipitated protein was removed by centrifugation (15 min, 4 °C, 4,000 g). Concentration of the remaining test compound at the different time points was analyzed by HPLC-MS/MS (TSQ Quantum Access MAX, Thermo Fisher, Dreieich, Germany) and used to determine half -life (t1/2) and intrinsic clearance (Clint). Species profiling was conducted as above using 0.5 mg/mL pooled mouse, rat or minipig liver microsomes (Xenotech, Kansas City, USA) with 2 mM NADPH and 10 mM MgCl2 and testosterone, verapamil and ketoconazole as reference compounds. 3.5 Plasma stability To determine stability in plasma, the compound (1 µM) was incubated with pooled CD -1 mouse/human/Wistar rat or Göttingen minipig plasma (Neo Biotech, Nanterre, France). Samples were taken by mixing aliquots with 4 volumes of acetonitrile containing internal standard (125 nM diphenhydramine). The plasma stability of procain, propantheline and diltiazem were determined in parallel to confirm the enzymatic activity. Samples were stored on ice until the end of the incubation and precipitated protein was removed by centrifugation (15 min, 4 °C, 4,000 g, two centrifugation steps). Concentration of the remaining test compound at the different time points was analyzed by HPLC-MS/MS (TSQ Quantum Access MAX, Thermo Fisher, Dreieich, Germany) and used to determine half-life (t1/2). Table S2: Additional in vitro ADMET data for selected dipeptides. n.d.: not determined. […] Compound Solubility PBS pH 7.4 [µM] Mouse Human Mouse Human […] S57

The inhibition is how much of the control response was suppressed. A word on the microsomal CLint: it is a measure of how fast metabolising enzymes remove a compound, apart from limits set by blood flow. A low value points to greater metabolic stability. As for `CC(=O)c1ccc(NC(=O)[C@@H](NC(=O)[C@@H](CC(C)C)P(=O)(O)O)C(C)C)cc1` [(R)‐30], the inhibition at 100 µM (on MMP-1; in data set [1]) was under 10% throughout. Also, the microsomal CLint at 1 µM in data set [2] is under 5.8 µL/min/mg.

Turning to `CC(C)C[C@H](C(=O)N[C@H](C(=O)Nc1ccc(-n2ccnc2)cc1)C(C)C)P(=O)(O)O` [(R)‐36], the inhibition at 100 µM (on MMP-1; in data set [1]) was under 10% each time. Besides, the microsomal CLint at 1 µM in data set [2] was under 5.8 µL/min/mg.

On to `CC(C)CC(C(=O)N[C@H](C(=O)Nc1ccc(Cl)c(Cl)c1)C(C)C)P(=O)(O)O` (stereo partly drawn) [compound 9], for which the inhibition at 100 µM on MMP-1 was 13 ± 1%; in data set [1], under 10%. The compound further showed a microsomal CLint at 1 µM in data set [2] of under 5.8 µL/min/mg.

In the case of `CC(C)CC(C(=O)N[C@H](C(=O)Nc1ccc(Cl)c(Cl)c1)C1CCC1)P(=O)(O)O` (stereo partly drawn) [compound 13], the inhibition at 100 µM (on MMP-1; in data set [1]) was under 10% throughout. Also, the microsomal CLint at 1 µM in data set [2] is under 5.8 µL/min/mg.

With `CC(C)CC(C(=O)N[C@H](C(=O)Nc1ccc(Cl)c(Cl)c1)C1CCCCC1)P(=O)(O)O` (stereo partly drawn) [compound 14], the inhibition at 100 µM (on MMP-1; in data set [1]) was under 10% in each case. Further, the microsomal CLint at 1 µM in data set [2] is under 5.8 µL/min/mg.

Turning to `CC(=O)c1ccc(NC(=O)[C@@H](NC(=O)C(CC(C)C)P(=O)(O)O)C(C)C)cc1` (stereo partly drawn) [compound 30], the inhibition at 100 µM (at MMP-1; in data set [1]) was under 10% throughout. The same compound showed a microsomal CLint at 1 µM in data set [2] of under 5.8 µL/min/mg.
